The source made the active and inactive calls.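 Rule for the calls: active = fitted curve reaches a 40% rise in fluorescent cells at or below the top valid dose; inactive = opposite-direction effect, or the rest.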

The nature of the first experiment: compound fluorescence in GFP channel, mTEFS cells – imaging, mTEFS fibroblasts, cherry-pick, artefact control for X-chromosome reactivation project, dose response (AID 743396).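 Note: raw share of Hoechst-counted cells scored GFP positive without control normalization.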 Particulars: mTEFS fibroblasts autofluorescence, GFP-channel imaging, 3 days; at 19.5 µM (top of the series).
Consider `O=c1[nH]c(=O)n(CCC2=CCCCC2)c(O)c1/C=N/Nc1ccccc1`, for which the % fluorescent cells increase is 0% (inactive).
For the compound `O=[N+]([O-])c1ccc(O)c([N+](=O)[O-])c1`, the % fluorescent cells increase is 0% (inactive).

Still in this experiment, the particulars now being: mTEFS fibroblasts autofluorescence, GFP-channel imaging, 3 days; at 19.5 µM (top of the series); cells pretreated with 5-aza-dC.
On to `O=C(/C=C/Sc1ccc(C(F)(F)F)cn1)c1ccccc1`, for which the % fluorescent cells increase is -0.007% (inactive).
In the case of `CN(c1ccccc1)S(=O)(=O)c1ccc(C(=O)NCC(c2ccco2)N2CCCCC2)cc1` (stereo not given), the % fluorescent cells increase was 6.89% (inactive).
As for `CCOC(=O)N1CCN(C(=O)Cn2ccc3c(OC)cccc3c2=O)CC1`, the % fluorescent cells increase was 0.012% (inactive).
With `CC(C)n1c(NCc2cc(Cl)ccc2O)nc2ccccc21`, the % fluorescent cells increase was -0.007% (inactive).
As to `CC(=O)c1c(COC(=O)c2ccccc2Cl)nc2ccccc2[n+]1[O-]`, the % fluorescent cells increase was 0.001% (inactive).
Still for that read-out and setting: next, `C[C@H](NC(=O)C[C@@H]1CC[C@H](NC(=O)Cc2ccccn2)[C@@H](CO)O1)c1ccccc1`: 0.048% (inactive).
The same measure, in the same setting: next, `CC(=O)C1=NN(c2ccc(Cl)cc2)C(c2ccc3c(c2)OCO3)N(C(C)=O)N1C` (stereo not given): -0.011% (inactive); `Cc1ccc(S(=O)(=O)N(C)C[C@H]2Oc3ccc(NC(=O)Nc4ccccc4)cc3CC(=O)N([C@H](C)CO)C[C@@H]2C)cc1`: 0% (inactive).
With `O=C1CSC(c2cccnc2)N1Cc1ccc(Cl)cc1Cl` (stereo not given), the % fluorescent cells increase is 0% (inactive).
Regarding `N#CC(C#N)=C1C=CC=CN1/C(=C\c1ccco1)C(=O)c1ccc(Br)cc1`, the % fluorescent cells increase was 0% (inactive).
With `CC(C)C#Cc1ccc([C@@H]2[C@@H](CO)N3C(=O)CN(C(=O)c4ccc5c(c4)OCO5)C[C@H]23)cc1`, the % fluorescent cells increase is -0.166% (inactive).
Same read-out and setting: under `CCN1C(=O)C(=Cc2cccc(OC)c2Oc2ccc([N+](=O)[O-])cc2[N+](=O)[O-])SC1=S` stands 1.07% (inactive); under `COc1cccc(CNC(=O)CNC(=S)N(Cc2ccccc2)Cc2ccccc2F)c1`, 0.054% (inactive).
`CCN(CC(=O)Nc1sc2c(c1C#N)CCCC2)CC(=O)NC1CCS(=O)(=O)C1` (stereo not given): the % fluorescent cells increase is 0.225% (inactive).
Regarding `O=C(N/N=C/c1ccc2cccnc2c1)c1nc2ccccc2c(=O)[nH]1`, the % fluorescent cells increase is 0.022% (inactive).
On the same count and under the same terms, next, `CNc1ncnc(Sc2ccc(Cl)cc2)c1[N+](=O)[O-]`: 0% (inactive); `COc1ccc(CCCc2nc3ccccc3[nH]2)cc1`: -0.011% (inactive).
Turning to `C=CCn1c(SCC(=O)N(CC)C2CCS(=O)(=O)C2)nc2sc3c(c2c1=O)CCC3` (stereo not given), the % fluorescent cells increase is 0.034% (inactive).
Take `O=C(O)/C=C/C(=O)Nc1ccc(-n2nccc2C(F)(F)F)cc1`: the % fluorescent cells increase was 1.85% (inactive).
On the same count and under the same terms, next, `O=C(CC1CC1)N1CC(=O)N2[C@@H](CO)[C@H](c3ccc(C#Cc4ccc(F)cc4)cc3)[C@@H]2C1`: -0.043% (inactive); `Cc1c(Nc2cc(Cl)c3nonc3c2[N+](=O)[O-])c(=O)n(-c2ccccc2)n1C`: -0.007% (inactive); `NNC(=O)c1sc(-c2ccccc2)cc1N`: 1.36% (inactive).
For the compound `CN(C)C=NC(=O)c1cc(C(=O)c2ccc(Cl)cc2Cl)c[nH]1`, the % fluorescent cells increase was 0.032% (inactive).
For `Cc1cccc(OCC(=O)N(C)c2c(N)n(Cc3ccccc3)c(=O)[nH]c2=O)c1C`, the % fluorescent cells increase was 0.02% (inactive).
Same read-out and setting: next, `COc1cc(C(=O)NC(=S)Nc2cccc3nc(C)ccc23)cc(OC)c1OC`: 0.128% (inactive); `Cc1cc(NC(=O)c2ccccc2)n(-c2nc3ccccc3[nH]2)n1`: 0.023% (inactive); `CC1CCN(C(=O)Cn2nnc(-c3ccccc3)n2)CC1`: 0.009% (inactive).
On the same count and under the same terms, under `COc1ccc(S(=O)(=O)Nc2cccc3c2O[C@H](CN(C)S(=O)(=O)c2cn(C)cn2)[C@H](C)CN([C@H](C)CO)C3=O)cc1` stands 0.016% (inactive); under `Cc1ccc(O)c(N=Nc2ccc(S(=O)(=O)N3CCCC3)cc2)c1`, 0% (inactive); under `COc1ccc(Cc2c(O)nc(SCC(=O)NC34CC5CC(CC(C5)C3)C4)[nH]c2=O)cc1`, 0.014% (inactive).
Take `COc1ccc(/C=C\c2onc(C)c2S(=O)(=O)N2CCC(C(=O)NCc3ccco3)CC2)cc1`: the % fluorescent cells increase is 0.029% (inactive).
Take `CC(=Nc1ccc(Cl)cc1N)c1c(O)cc(C)oc1=O`: the % fluorescent cells increase was 0.643% (inactive).
Consider `COc1ccc(-c2nnc(NC(=O)c3ccc(F)cc3)o2)cc1`, for which the % fluorescent cells increase is 0% (inactive).
`CCc1ccc(CCC(=O)Nc2ncc(Cc3ccccc3Cl)s2)o1`: the % fluorescent cells increase is -0.007% (inactive).
Still for that read-out and setting: next, `CC(C)c1ccc(CN2CCN(C(=O)CSc3nnnn3C3CC3)CC2)cc1`: 0.042% (inactive); `CCN1CCN(c2cc(C)c3cc(NC(=O)c4cccs4)ccc3n2)CC1`: 0.257% (inactive); `Nc1ccc(-c2nc3ccccc3[nH]2)cc1`: 0% (inactive).
Consider `O=C(Nc1c(Cl)cccc1Cl)Oc1cccc2cccnc12`, for which the % fluorescent cells increase is 6.89% (inactive).
For the compound `COC(=O)C(C(C)C)N1CCc2c(C)nc3c(C#N)cnn3c21` (stereo not given), the % fluorescent cells increase is 0.064% (inactive).
`COc1ccc(C)c(-n2c(=O)n(Cc3ccccc3)c(=O)c3[nH]cnc32)c1`: the % fluorescent cells increase was 0.074% (inactive).
In the case of `CCOC(=O)c1ccc(NC(=O)c2ccnn2C)cc1`, the % fluorescent cells increase is 0% (inactive).
For `COc1ccc(NC(=O)COc2ccc(C)c(C)c2)cc1S(=O)(=O)N1CCCCC1`, the % fluorescent cells increase is 0.026% (inactive).
Same read-out and setting: under `CC1C=NC(S(=O)(=O)N2CC[C@@H]3[C@@H](CO)N(C)c4ccc(-c5ccccc5)cc4[C@@H]32)=N1` (stereo not given in full) stands 0% (inactive).
On the same count and under the same terms, under `COc1ccc2c3c(n(C)c2c1)[C@H](CO)N(Cc1ccccc1F)CC31CCN(CC2CC2)CC1` stands -0.126% (inactive); under `COC(=O)c1ccc(-n2c(C)cc(C(=O)COC(=O)C3=COCCO3)c2C)cc1`, -0.007% (inactive); under `CC(=O)Nc1ccc(NS(=O)(=O)c2ccc3c(c2)oc(=O)n3C)cc1`, 0.01% (inactive).
As for `COc1cc(/C=C2\SC(=S)N(N3CCOCC3)C2=O)cc(OC)c1OC`, the % fluorescent cells increase was -0.007% (inactive).
Regarding `O=C1N[C@H](Cc2ccccc2)COCc2cn(nn2)CC[C@@H]1Cc1ccccc1`, the % fluorescent cells increase was 0.024% (inactive).
As to `N/C(=N\c1nc(CSc2nc3ccccc3s2)cc(=O)[nH]1)Nc1ccc(F)cc1`, the % fluorescent cells increase was 2.21% (inactive).
As to `O=[N+]([O-])c1ccc(S(=O)(=O)c2ccccc2)nc1`, the % fluorescent cells increase is -0.004% (inactive).
Consider `O=[N+]([O-])c1c(Nc2ccc(O)cc2)cc(Cl)c2nonc12`, for which the % fluorescent cells increase was -0.006% (inactive).
As to `CCN(CC)c1ccc(N=Cc2ccc([N+](=O)[O-])o2)cc1`, the % fluorescent cells increase was 0.026% (inactive).

The experiment is the same for the next values; noted with them: mTEFS fibroblasts autofluorescence, GFP-channel imaging, 3 days; at 21 µM (top of the series); cells pretreated with 5-aza-dC.
As for `Cc1cccc(CN(C)C[C@@H]2Oc3ncc(C#Cc4ccccc4)cc3C(=O)N([C@H](C)CO)C[C@@H]2C)c1`, the % fluorescent cells increase is 0% (inactive).

For the origin of these results see PubChem BioAssay AID743396 (Broad Institute, 2014).
